Assay results from patent US11110102B2, “Antifungal agents used in combination” (Scynexis, Inc., priority 2017, dated 2021).
Several values for one entry are separate records, joined by “and”; a condition that tells them apart may be missing. Equal values may be shown once. Read-outs that look alike come from different tables or passages of the source.

Experiments:
Assay in all cases: Checkerboard combination MIC testing
Format in all cases: cell-based, Aspergillus fumigatus
[1] = tested on: A. fumigatus MRL #20438; conditions: A. fumigatus MRL 20438 (wild-type), read at 48 hours, duplicate; for MIC per drug in Combination: SCY-078 combined with isavuconazole; for MIC: Aspergillus fumigatus, SCY078, 48 h
From the text: (§1) To determine the type of interaction between a representative compound of the enfumafungin derivatives (SCY-078) with several antifungal agents against Aspergillus fumigatus, the most frequent mold causing invasive disease in humans, the checkerboard method was used. The citrate salt of the compound was used in the studies.
(§2) The checkerboard method involves the determination of percent growth inhibition of fungal cells in the presence of different combinations of drugs. Percent growth inhibition is calculated relative to growth in control wells which contain only cells and no drug. The assay was performed in 96-well microplates in which each row and each column contained twofold serial dilutions of drug A and drug B at concentrations ranging from 0 to slightly higher than their minimum inhibitory concentration (MIC). […] Then the inoculum was added to each well and the growth was evaluated after 48 hrs incubation to determine the first well in which growth was inhibited. The checkerboard-based determination of MICs of antifungal agents in combination was followed by further analysis employing the nonparametric fractional inhibitory concentration index (FICI), which is defined by the following equation:
(§3) [formula] where MIC-A and MIC-B are the MICs of drugs A and B, respectively.
(§4) Each drug was initially diluted in either sterile, distilled water or in DMSO, depending on whether the drug was water-soluble or water-insoluble, respectively.
(§5) Stock solution of SCY-078 was prepared in DMSO at 200 times the concentration desired for use in the drug plates. Serial dilutions of stock solution were conducted in DMSO to obtain eleven 2-fold dilutions of the drug. The SCY-078 solution was then diluted to 4 times the desired concentration in RPMI-1640 medium so that the DMSO would not limit growth of the organism and so that the quantity of DMSO was the same for every dilution.
(§6) Two 96-well plates are needed to conduct a combination test. Using a multichannel pipette, 50 μl of the lowest concentration of the first drug (Drug A) was added to each well of column 1 of the first plate (plate A) and column 1 of the second plate (plate B; rows A-D). Then, 50 μl of the next highest working dilution of Drug A was added to each well in column 2, continuing with dilutions until all columns 1-11 were filled. Column 12 was left empty. 50 μl of the lowest concentration of Drug B was added to each well in Row D of plate B. 50 μl of the next highest working dilution of Drug B was added to each well in row C of plate B, continuing with dilutions until all rows through row B of plate A were filled.
(§7) Following the above, 100 μl of organism inoculum was added to every well. The plates were then incubated for 48 hours and visually read after incubation.
(§8) The objective of the study was to determine whether the combination of SCY-078 with voriconazole, isavuconazole, or amphotericin B would result in a combined in vitro antifungal activity exceeding the sum of the activities of each drug alone. Combination MIC testing was performed using the checkerboard assay described above.
(§9) Initial MIC determinations of the individual antifungals were performed according to the Clinical and Laboratory Standards Institute (CLSI) M38-A2 standard for the susceptibility testing of filamentous fungi.
(§10) Combination MIC testing was performed using a checkerboard test method according to the Center for Medical Mycology SOP A11.3. The checkerboard combination test method is a modification of the microdilution antifungal susceptibility test wherein two test compounds are combined in varying concentrations to determine whether they have synergistic, antagonistic, or no effect on the respective MIC values.
(§11) Antifungals were serially diluted two-fold in RPMI medium to produce eleven concentrations each and were combined in wells of a microtiter plate. Two rows consisting of serial dilutions of each individual drug were included. All combination testing was conducted in duplicate. […]

[2] = tested on: A. fumigatus MRL #28378; conditions: A. fumigatus MRL 28378 (wild-type), read at 48 hours, duplicate; for MIC per drug in Combination: SCY-078 combined with isavuconazole; for MIC: Aspergillus fumigatus, SCY078, 48 h
From the text: as §1, §2, §3, §4, §5, §6, §7, §8, §9, §10, §11

[3] = tested on: A. fumigatus MRL #28382; conditions: A. fumigatus MRL 28382 (wild-type), read at 48 hours, duplicate; for MIC: Aspergillus fumigatus, SCY078, 48 h
From the text: as §1, §2, §3, §4, §5, §6, §7, §8, §9, §10, §11

[4] = tested on: A. fumigatus MRL #28383; conditions: A. fumigatus MRL 28383 (azole-resistant), read at 48 hours, duplicate; for MIC: Aspergillus fumigatus, SCY078, 48 h, drug alone
From the text: as §1, §2, §3, §4, §5, §6, §7, §8, §9, §10, §11

[5] = tested on: A. fumigatus MRL #28401; conditions: A. fumigatus MRL 28401 (wild-type), read at 48 hours, duplicate; for MIC per drug in Combination: SCY-078 combined with isavuconazole; for MIC: Aspergillus fumigatus, SCY078, 48 h
From the text: as §1, §2, §3, §4, §5, §6, §7, §8, §9, §10, §11

[6] = drug alone, SCY-078/isavuconazole test, read-out: MIC per drug Alone
[7] = SCY-078 combined with isavuconazole
[8] = SCY-078/isavuconazole test, read-out: MIC per drug Alone
[9] = SCY-078 combined with amphotericin B
[10] = SCY-078 combined with voriconazole
[11] = drug alone, SCY-078/voriconazole test
[12] = drug alone, SCY-078/amphotericin B test, read-out: MIC Alone
[13] = drug alone, SCY-078/voriconazole test, read-out: MIC Alone
[14] = drug alone, SCY-078/amphotericin B test
[15] = drug alone, SCY-078/isavuconazole test

With `C[C@@H](c1nc(-c2ccc(C#N)cc2)cs1)[C@](O)(Cn1cncn1)c1cc(F)ccc1F` [Isavuconazole, isavuconazole] the “MIC per drug in Combination” value [1] was 0.5 µg/mL, the MIC [1, 6] was 1 µg/mL and the “MIC per drug in Combination” value [2] was 0.125 µg/mL and 0.25 µg/mL. The MIC [2, 6] was 1 µg/mL, the “MIC per drug in Combination” value [3, 7] was 0.25 µg/mL and the “MIC per drug in Combination” value [4, 7] was >8 µg/mL and 4 µg/mL. The MIC [4, 8] was > 8 µg/mL, the “MIC per drug in Combination” value [5] was 0.25 µg/mL and the MIC [5, 6] was 1 µg/mL.
`CC(C)[C@@H](C)[C@@]1(C)CC[C@]2(C)[C@H]3CC[C@@H]4[C@@]5(COC[C@@]4(C)[C@@H](OC[C@](C)(N)C(C)(C)C)[C@H](n4ncnc4-c4ccncc4)C5)C3=CC[C@@]2(C)[C@@H]1C(=O)O` [SCY-078, (1S,4aR,6aS,7R,8R,10aR,10bR,12aR,14R,15R)-15-[[(2R)-2-amino-2,3,3-trimethylbutyl]oxy]-8-[(1R)-1,2-dimethylpropyl]-14-[5-(4-pyridinyl)-1H-1,2,4-triazol-1-yl]-1,6,6a,7,8,9,10,10a,10b,11,12,12a-dodecahydro-1,6a,8,10a-tetramethyl-4H-1,4a-propano-2H-phenanthro[1,2-c]pyran-7-carboxylic acid] was tested, and the “MIC in Combination” value [1, 9] was 0.016 µg/mL, the “MIC per drug in Combination” value [1] was 0.016 µg/mL and the “MIC in Combination” value [1, 10] was 0.125 µg/mL and 0.25 µg/mL. For the same compound, the “MIC Alone” value [1, 11] was 4 µg/mL, the MIC [1, 12] was 4 µg/mL and the MIC [1, 6] was 4 µg/mL. For the same compound, the MIC [1, 13] was 8 µg/mL, the “MIC in Combination” value [2, 9] was 0.016 µg/mL and the “MIC per drug in Combination” value [2] was 0.125 µg/mL. The “MIC in Combination” value [2, 10] was 0.5 µg/mL, the “MIC Alone” value [2, 11] was 4 µg/mL and the MIC [2, 12] was 4 µg/mL. The MIC [2, 6] was 4 µg/mL, the MIC [2, 13] was 8 µg/mL and the “MIC Alone” value [3, 14] was 8 µg/mL. For the same compound, the “MIC per drug Alone” value [3, 15] was 4 µg/mL, the MIC [3, 12] was 4 µg/mL and the MIC [3, 6] was 8 µg/mL. For the same compound, the MIC [3, 13] was 8 µg/mL, the “MIC in Combination” value [4, 9] was 0.016 µg/mL and the “MIC in Combination” value [4, 10] was 0.031 µg/mL. The MIC ([4]; SCY-078/amphotericin B test, read-out: MIC Alone) was 4 µg/mL, the MIC [4, 8] was 4 µg/mL and the MIC ([4]; SCY-078/voriconazole test, read-out: MIC Alone) was 8 µg/mL. For the same compound, the “MIC in Combination” value [5, 9] was 0.016 µg/mL and 0.031 µg/mL, the “MIC per drug in Combination” value [5] was 0.25 µg/mL and 0.5 µg/mL and the “MIC in Combination” value [5, 10] was 0.25 µg/mL and 0.125 µg/mL. The “MIC Alone” value [5, 14] was 8 µg/mL, the “MIC per drug Alone” value [5, 15] was 8 µg/mL and the MIC [5, 12] was 4 µg/mL. The MIC [5, 6] was 4 µg/mL and the MIC [5, 13] was 8 µg/mL.
